{
  "source": "patent US8063033B2",
  "about": "“Therapeutic beta-lactams” (Allergan, Inc., priority 2008, dated 2011)",
  "tested_on": "lashes and adjacent hairs of patients",
  "assay": "Observation of eyelash/hair growth in glaucoma patients treated in one eye",
  "format": "in vivo, human",
  "conditions": "glaucoma patient treated in one eye only",
  "source_text": "In the course of treating patients having glaucoma, treatment may only be appropriate in one eye. […] The lash appearance on the lids of the treated eyes would have appeared quite attractive if it represented a bilateral phenomenon. As a result of its asymmetric nature, the long lashes on one side could be construed as disturbing from a cosmetic standpoint. A systemic examination was preformed as a result of the asymmetric phenomenon. It soon became apparent that this altered appearance was not an isolated finding. […] Definite differences could be identified to varying degrees in the lashes and adjacent hairs of all patients who were taking the drug on a unilateral basis for longer than 6 months.\nThe changes in the lashes were apparent on gross inspection in several patients once attention was focused on the issue. In those with light colored hair and lashes, the differences were only seen easily with the aid of the high magnification and lighting capabilities of the slit lamp biomicroscope. In the course of glaucoma follow-up examination, attention is generally immediately focused on the eye itself. As a result of the high power magnification needed only one eye is seen at a time and the eye is seen at a high enough power that the lashes are not in focus. […]",
  "data": [
    {"smiles": "CCNC(=O)CCC/C=C\\C[C@@H]1[C@@H](/C=C/[C@@H](O)CCc2ccccc2)[C@H](O)C[C@@H]1O", "note": "[bimatoprost]", "values": [
      {"measurement": "lash appearance in treated eye versus non-treated eye", "value": "longer, thicker, and fuller"}
    ]}
  ]
}
